From ChEMBL document CHEMBL1201862, “PubChem BioAssay data set” (2004)
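Protocol summary: plate cells (96-well), add compound at 5 concentrations, incubate 48 h, interpolate endpoints linearly. The concentration for 50% growth inhibition is given as GI50.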 The source made the active and inactive calls. Cut-off read from the data, not from the text of the source: active = GI50 up to about 1.1 µM and inactive = higher.

Experiments:
Experiment in all cases: DTP human tumour cell line panel, 48 h
[1] = test system: CCRF-CEM
[2] = test system: HCT-116
[3] = test system: HCT-15
[4] = test system: NCI-H522
[5] = test system: K562
[6] = test system: NCI-H460
[7] = test system: OVCAR-3
[8] = test system: SK-MEL-2
[9] = test system: U-251
[10] = test system: OVCAR-8
[11] = test system: A498
[12] = test system: Malme-3M
[13] = test system: A549
[14] = test system: DLD-1
[15] = test system: RPMI-8226

Row | Structure (SMILES) | GI50 [1] | GI50 [2] | GI50 [3] [µM] | GI50 [4] | GI50 [5] | GI50 [6] | GI50 [7] | GI50 [8] | GI50 [9] | GI50 [10] | GI50 [11] | GI50 [12] | GI50 [13] | GI50 [14] | GI50 [15]
1 | CC(C)CS(=O)(=O)/C(=C(\c1ccc(Br)cc1)S(=O)(=O)CC(C)C)c1ccc(Br)cc1 | > 100 µM (inactive) | > 100 µM (inactive) | > 100 | > 100 µM (inactive) | > 100 µM (inactive) | > 100 µM (inactive) | > 100 µM (inactive) | > 100 µM (inactive) | > 100 µM (inactive) | > 100 µM (inactive) | 16.3 µM (inactive) | > 100 µM (inactive) | > 100 µM (inactive) | > 100 µM (inactive) | > 100 µM (inactive)
2 | O=C(O)c1ccccc1[Se][Se]c1ccccc1C(=O)O | 56 µM (inactive) | 37.4 µM (inactive) | 55.1 | 37.9 µM (inactive) | > 100 µM (inactive) | 30.8 µM (inactive) | 51.1 µM (inactive) | 44.4 µM (inactive) | 40.8 µM (inactive) | 43.5 µM (inactive) | 95.7 µM (inactive) | 47.2 µM (inactive) | 51.1 µM (inactive) | > 100 µM (inactive) | 66.2 µM (inactive)
3 | CCOC(=O)/C(I)=C/c1cc(OC)c(OC)c(OC)c1 | 1.93 µM (inactive) | 3.26 µM (inactive) | 3.9 | 4.14 µM (inactive) | 3.86 µM (inactive) | 40.6 µM (inactive) | 3.94 µM (inactive) | 49 µM (inactive) | 6.11 µM (inactive) | 6.37 µM (inactive) | 25.6 µM (inactive) | 8.89 µM (inactive) | 4.89 µM (inactive) | 6.03 µM (inactive) | 4.02 µM (inactive)
4 | [O-][S+]1c2ccccc2N=C(c2cccc3ccccc23)CC1c1cccc2ccccc12 (stereo unspecified) | 20.5 µM (inactive) | 17.3 µM (inactive) | 15.1 | 15 µM (inactive) | 30.8 µM (inactive) | 15 µM (inactive) | 19.1 µM (inactive) | 17.5 µM (inactive) | 18.6 µM (inactive) | 18.9 µM (inactive) | 21.7 µM (inactive) | 22.9 µM (inactive) | 18.8 µM (inactive) | 18.4 µM (inactive) | 19.8 µM (inactive)
5 | C1CN2CCO[SiH](O1)OCC2 | > 100 µM (inactive) | > 100 µM (inactive) |  | > 100 µM (inactive) | > 100 µM (inactive) | > 100 µM (inactive) | > 100 µM (inactive) | > 100 µM (inactive) | > 100 µM (inactive) | > 100 µM (inactive) | > 100 µM (inactive) | > 100 µM (inactive) | > 100 µM (inactive) | > 100 µM (inactive) | > 100 µM (inactive)
6 | COc1ccc(/C=C2\CCC(CCN(C)C)(C3=CCCC3)C2=O)cc1Br (stereo unspecified) | 2.13 µM (inactive) | 3.46 µM (inactive) | 4.54 | 2.06 µM (inactive) | 2.58 µM (inactive) | 10.1 µM (inactive) | 5.74 µM (inactive) | 10 µM (inactive) | 5.82 µM (inactive) | 9.08 µM (inactive) | 8.95 µM (inactive) | 13.8 µM (inactive) | 8.32 µM (inactive) | 5.13 µM (inactive) | 2.17 µM (inactive)
7 | CCOC(=O)NC(=O)c1cn(CCCOC(=O)CCCCCCCCCCC(=O)OCCCn2cc(C(=O)NC(=O)OCC)c(=O)n(C)c2=O)c(=O)n(C)c1=O | > 100 µM (inactive) | > 100 µM (inactive) | > 100 | > 100 µM (inactive) | > 100 µM (inactive) | > 100 µM (inactive) | > 100 µM (inactive) | > 100 µM (inactive) | > 100 µM (inactive) | > 100 µM (inactive) | > 100 µM (inactive) | > 100 µM (inactive) | > 100 µM (inactive) | > 100 µM (inactive) | > 100 µM (inactive)
8 | O=C1N=C(Nc2ccccc2Cl)SC1C(=O)Nc1ccc([N+](=O)[O-])cc1[N+](=O)[O-] (stereo unspecified) | > 100 µM (inactive) | > 100 µM (inactive) | > 100 | > 100 µM (inactive) | > 100 µM (inactive) | > 100 µM (inactive) | > 100 µM (inactive) | > 100 µM (inactive) | > 100 µM (inactive) | > 100 µM (inactive) | > 100 µM (inactive) | > 100 µM (inactive) | > 100 µM (inactive) | > 100 µM (inactive) | > 100 µM (inactive)
9 | O=C1c2ccccc2C(=O)c2c(NCCNCCO)ccc(O)c21 | 3.15 µM (inactive) | 1.81 µM (inactive) | 3.46 | 2.59 µM (inactive) | 4.86 µM (inactive) | 1.44 µM (inactive) | 6.46 µM (inactive) | 3.54 µM (inactive) | 3.48 µM (inactive) | 2.39 µM (inactive) | 5.53 µM (inactive) | 3.18 µM (inactive) | 2.45 µM (inactive) | 3.33 µM (inactive) | 3.22 µM (inactive)
10 | Cc1ccc(C)c(NC(=O)CC/C(=N\NC(=O)C(=O)NN)C(C)C(=O)c2ccc(O)cc2)c1 (stereo unspecified) | > 100 µM (inactive) | > 100 µM (inactive) | > 100 | > 100 µM (inactive) | > 100 µM (inactive) | > 100 µM (inactive) | > 100 µM (inactive) | > 100 µM (inactive) | > 100 µM (inactive) |  | > 100 µM (inactive) | > 100 µM (inactive) | > 100 µM (inactive) | > 100 µM (inactive) | > 100 µM (inactive)
11 | Cn1c2cc(O)cc(O)c2c(=O)c2c([N+](=O)[O-])cccc21 | > 100 µM (inactive) | > 100 µM (inactive) | > 100 | > 100 µM (inactive) | > 100 µM (inactive) | > 100 µM (inactive) | > 100 µM (inactive) | > 100 µM (inactive) | > 100 µM (inactive) | > 100 µM (inactive) | > 100 µM (inactive) | > 100 µM (inactive) | > 100 µM (inactive) | > 100 µM (inactive) | > 100 µM (inactive)
12 | COc1ccc(/N=N/c2c(N)nn(C)c2N)cc1 | 92.7 µM (inactive) | > 100 µM (inactive) | > 100 | > 100 µM (inactive) | > 100 µM (inactive) | > 100 µM (inactive) | > 100 µM (inactive) | > 100 µM (inactive) | > 100 µM (inactive) | > 100 µM (inactive) | > 100 µM (inactive) | > 100 µM (inactive) | > 100 µM (inactive) | > 100 µM (inactive) | > 100 µM (inactive)
13 | O=C1[C@H]2ON(c3ccccc3)C(c3ccc(Cl)cc3)[C@H]2C(=O)N1c1ccc(Cc2ccc(N3C(=O)[C@@H]4ON(c5ccccc5)C(c5ccc(Cl)cc5)[C@@H]4C3=O)cc2)cc1 (stereo partly specified) | > 100 µM (inactive) | > 100 µM (inactive) | > 100 | > 100 µM (inactive) | > 100 µM (inactive) | > 100 µM (inactive) | > 100 µM (inactive) | > 100 µM (inactive) | > 100 µM (inactive) | > 100 µM (inactive) | > 100 µM (inactive) | 40.7 µM (inactive) | > 100 µM (inactive) | > 100 µM (inactive) | > 100 µM (inactive)
14 | COC(=O)[C@@]1(C)C(=O)CC[C@@H]1C=O | > 100 µM (inactive) | > 100 µM (inactive) | > 100 | > 100 µM (inactive) | > 100 µM (inactive) | > 100 µM (inactive) | > 100 µM (inactive) | > 100 µM (inactive) | > 100 µM (inactive) | > 100 µM (inactive) | > 100 µM (inactive) | > 100 µM (inactive) | > 100 µM (inactive) | > 100 µM (inactive) | > 100 µM (inactive)
15 | CC(=O)Nc1ccc(S(=O)(=O)Nc2cnc3ccccc3n2)cc1 | > 100 µM (inactive) |  | > 100 | > 100 µM (inactive) | > 100 µM (inactive) | > 100 µM (inactive) | > 100 µM (inactive) | > 100 µM (inactive) | > 100 µM (inactive) | > 100 µM (inactive) | > 100 µM (inactive) | > 100 µM (inactive) | > 100 µM (inactive) | > 100 µM (inactive) | > 100 µM (inactive)
16 | O=C(/C=C/c1ccccc1)c1ccc(NCc2nc3ccccc3[nH]2)cc1 | 2.48 µM (inactive) | 3.22 µM (inactive) | 4.11 | 4.14 µM (inactive) | 2.51 µM (inactive) | 3.27 µM (inactive) | 2.8 µM (inactive) | 12.7 µM (inactive) | 1.91 µM (inactive) | 3.49 µM (inactive) | 5.24 µM (inactive) | 13.3 µM (inactive) | 4.35 µM (inactive) | 4.27 µM (inactive) | 2.29 µM (inactive)
17 | CCCCCC(/C=C/[C@@H]1[C@H]2CC(=O)O[C@H]2C[C@H]1N1CCOCC1)OC1CCCO1 (stereo partly specified) | > 100 µM (inactive) | > 100 µM (inactive) | > 100 | > 100 µM (inactive) | > 100 µM (inactive) | > 100 µM (inactive) | > 100 µM (inactive) | > 100 µM (inactive) | > 100 µM (inactive) | > 100 µM (inactive) | > 100 µM (inactive) | > 100 µM (inactive) | > 100 µM (inactive) | > 100 µM (inactive) | > 100 µM (inactive)
18 | COc1ccc2[nH]c3c(c2c1)[C@H](C)C[C@@H]1C(=O)N(c2ccccc2)C(=O)[C@H]31 | 32.5 µM (inactive) | 20.3 µM (inactive) | 35.2 | 16.1 µM (inactive) | 46 µM (inactive) | 26.2 µM (inactive) | 24 µM (inactive) | 42.7 µM (inactive) | 15.5 µM (inactive) | 17.8 µM (inactive) | 20.6 µM (inactive) | 26.6 µM (inactive) | 27.4 µM (inactive) | 43.3 µM (inactive) | 
